Experimental data taken from patent US20080085889A1, “Amidomethyl-Substituted 1-(Carboxyalkyl) Cyclopentyl-Carbonylamino-Benzazepine-N-Acetic Acid Compounds, Process and Intermediate Products for Their Preparation and Pharmaceutical Compositions Containing Them” (SOLVAY PHARMACEUTICALS GmbH, priority 2003, published 2008).
Entries after “also recorded” stand apart in the source; their conditions may differ. Where two headings read alike, the source gives them in different places. Marks after values point to notes of the source that are not given here.

How the values were obtained:
[1] = target: T1, hSEP (sol hu)(his)6; His6-tagged hSEP ectodomain (Homo sapiens, UniProt Q495T6); test: Enzymatic breakdown of CNP and VIP by hSEP and its inhibition, in vitro, HPLC; format: biochemical
T1 construct: His6-tagged hSEP ectodomain; His6; purchased Innogenetics, Ghent, Belgium
T1 sequence (Q495T6 49-779 limits assumed): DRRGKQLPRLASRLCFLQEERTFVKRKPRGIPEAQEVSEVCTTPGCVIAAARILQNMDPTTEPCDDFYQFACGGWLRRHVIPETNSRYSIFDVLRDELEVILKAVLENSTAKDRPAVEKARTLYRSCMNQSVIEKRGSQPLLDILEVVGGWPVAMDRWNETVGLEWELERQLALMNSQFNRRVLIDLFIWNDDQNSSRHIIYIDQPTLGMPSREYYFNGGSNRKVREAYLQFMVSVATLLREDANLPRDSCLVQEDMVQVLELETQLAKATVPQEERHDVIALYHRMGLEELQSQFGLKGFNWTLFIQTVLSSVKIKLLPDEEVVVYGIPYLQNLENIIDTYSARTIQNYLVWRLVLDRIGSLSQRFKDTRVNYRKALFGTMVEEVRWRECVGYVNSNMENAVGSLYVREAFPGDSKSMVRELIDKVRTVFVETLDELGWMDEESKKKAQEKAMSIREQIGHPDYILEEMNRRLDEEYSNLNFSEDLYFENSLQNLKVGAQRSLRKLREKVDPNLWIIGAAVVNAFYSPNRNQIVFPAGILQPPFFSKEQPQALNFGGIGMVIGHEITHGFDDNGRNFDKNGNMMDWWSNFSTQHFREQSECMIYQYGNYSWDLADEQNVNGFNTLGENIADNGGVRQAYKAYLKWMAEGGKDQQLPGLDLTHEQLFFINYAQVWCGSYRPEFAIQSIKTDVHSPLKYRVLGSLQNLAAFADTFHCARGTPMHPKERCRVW
Description: The inhibition of the enzymatic breakdown of CNP and VIP by the compounds used according to the invention was measured in an enzymatic in vitro assay according to the following protocol:
All test compounds were dissolved in DMSO at 10 mM and further diluted with assay buffer.
80 μl of assay buffer, 10 μl of enzyme working solution (NEP or hSEP) and 10 μl of peptide stock solution (VIP or CNP) were mixed in an Eppendorf vial and incubated for 120 min. at 37° C. The enzymatic reaction was subsequently terminated by heating to 95° C. for 5 min. After centrifugation (Heraeus Biofuge B, 3 min) the supernatant was subjected to HPLC.
70 μl of assay buffer, 10 μl of enzyme working solution (NEP or hSEP) and 10 μl of a test compound solution were mixed in an Eppendorf vial and preincubated at 37° C. for 15 minutes. Then, 10 μl of peptide stock solution (VIP or CNP) was added and the reaction mixture was incubated at 37° C. for 60 min. to allow enzymatic hydrolysis. The enzymatic reaction was subsequently terminated by heating to 95° C. for 5 min. After centrifugation (Heraeus Biofuge B, 3 min) the supernatant was subjected to HPLC. In order to separate the remaining substrate from the cleavage products, a reversed phase HPLC technique with a CC 125/4 Nucleosil 300/5 C18 RP column and a CC 8/4 Nucleosil 100/5 C18 precolumn (Macherey-Nagel, Düren, Germany) was used. 60 μl of the reaction samples were injected into the HPLC and the column was eluted at a flow rate of 1 ml/min with the following gradient:
All peptides were detected by absorbance at 214 nm (UV spectroscopy). The percentage (=%) of hydrolysis was calculated on the basis of the peak area of the undegraded peptide for an enzyme containing sample Y in correlation to a sample containing the same concentration of peptide without enzyme (blank) by the following equation: % hydrolysis=100*(blank−Y)
Basis of the calculation of % inhibition is the peak area of the undegraded peptide (VIP or CNP) for an inhibitor containing sample X in comparison to samples containing only peptide (blank) or peptide and enzyme without inhibitor (control) according to the following equation: % inhib=100*(X−control)/(blank−control)
All samples were run in duplicate and mean values were used. A solvent control (0.1% DMSO) was added to each assay run. CNP and VIP were cleaved by NEP and hSEP in vitro.

[2] = test system: TUNEL positive cells in heart, liver and kidney; test: Adriamycin toxicity: determination of anti-apoptotic activity (TUNEL staining); format: in vivo, Wistar rats; settings: for TUNEL positive cells, Heart / TUNEL positive cells, Kidney / TUNEL positive cells, Liver: ± SEM
Description: 2. Adriamycin Toxicity: Determination of Anti-Apoptotic Activity
Wistar rats, weighing 200-250 g, were anesthetized with chloral hydrate, 400 mg/kg, and Alzet osmotic minipumps (2 ML1), were implanted subcutaneously (=s.c.). The pumps had been filled with either vehicle or solution containing compounds of the invention at the appropriate concentration and primed prior to implantation. Animals subsequently received adriamycin at three equal daily doses of 5 mg/kg i.p. on days 1, 2 and 3. Rats were euthanized 5 days after the first injection of adriamycin and transcardially perfused with a solution containing 4% paraformaldehyde in phosphate buffer. The heart, liver and kidneys were subsequently removed and embedded in parafin.
TUNEL staining: For terminal deoxynucleotide transferase-mediated dUTP nick end-label (TUNEL) based histological analysis, organs were post-fixed for 5 days at 4° C. and paraffin-embedded. TUNEL staining was performed on 10 μm thick paraffin sections using the ApopTag Peroxidase kit (S 7100, Oncor Appligene, Heidelberg, Germany) according to the manufacturer's instructions. Briefly, after pretreatment with proteinase K and quenching of endogenous peroxidase, sections were incubated in equilibration buffer followed by working strength TdT enzyme (incorporating digoxigenin labeled dUTP nucleotides to free 3′-OH DNA termini), (1 hr, 37° C.). Sections were incubated in stop/wash buffer (30 min, 37° C.), then with anti-digoxigenin-peroxidase conjugate (30 min) followed by DAB substrate (Sigma, Deisenhofen, Germany) and lightly counterstained with methylgreen.
Wistar rats were administered adriamycin at the cumulative dose of 15 mg/kg i.p. The test substance of Example 4 was administered s.c. at the doses of 20, 50 or 100 mg/kg and day by means of Alzet osmotic minipumps over 5 days. Animals were euthanized and transcardially perfused 5 days after the first injection of adriamycin and the heart, kidney and liver were processed for TUNEL staining. Densities of TUNEL positive cells were determined as described in the methods. Results for each organ (heart, liver, kidney) were measured as mean densities of TUNEL positive cells ±SEM for the control groups and the different test groups (20, 50 or 100 mg/kg and day of test compound of Example 4) and listed in table 8 below.
Comparisons between groups were performed by means of Student's t test (**P<0.01; ***P<0.001 compared to vehicle treated rats).

[3] = adriamycin 15 mg/kg cumulative i.p. + 20 mg/kg and day s.c. minipump over 5 days
[4] = adriamycin 15 mg/kg cumulative i.p. + 50 mg/kg and day s.c. minipump over 5 days
[5] = adriamycin 15 mg/kg cumulative i.p. + 100 mg/kg and day s.c. minipump over 5 days

{(3S)-3-[({1-[(2″rel1″)-2-ethoxycarbonyl)-4-(isopropylamino)-4-oxobutyl]cyclopentyl}-carbonyl)amino]-2-oxo-2,3,4,5-tetrahydro-1H-1-benzazepin-1-yl}acetic acid [Example 4]
IC50 ([1]; substrate CNP (32-53), read-out: inhibition of breakdown of CNP by hSEP, IC50): 1 nM
IC50 ([1]; substrate VIP, read-out: inhibition of breakdown of VIP by hSEP, IC50): 3.1 nM
protection against adriamycin toxicity (densities of TUNEL positive cells) ([2]; 20, 50 or 100 mg/kg and day s.c., heart, liver, kidney): significant protection against adriamycin toxicity in the heart, liver and kidney; also recorded: dose-dependently decreased the cytotoxic effect of adriamycin in all three organs
TUNEL positive cells, Heart [2, 3]: 4.350 ± 0.248*** cells/mm3 × 102
TUNEL positive cells, Kidney [2, 3]: 7.900 ± 0.306*** cells/mm3 × 102
TUNEL positive cells, Liver [2, 3]: 8.750 ± 0.301** cells/mm3 × 102
TUNEL positive cells, Heart [2, 4]: 3.700 ± 0.260*** cells/mm3 × 102
TUNEL positive cells, Kidney [2, 4]: 7.850 ± 0.587** cells/mm3 × 102
TUNEL positive cells, Liver [2, 4]: 8.250 ± 0.271*** cells/mm3 × 102
TUNEL positive cells, Heart [2, 5]: 3.550 ± 0.157*** cells/mm3 × 102
TUNEL positive cells, Kidney [2, 5]: 6.300 ± 0.260*** cells/mm3 × 102
TUNEL positive cells, Liver [2, 5]: 7.450 ± 0.329*** cells/mm3 × 102
most effective dose against adriamycin toxicity ([2]; of 20, 50 or 100 mg/kg and day s.c.): 100 mg/kg and day
